Results: PubChem BioAssay (NCI)
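Interpolation was linear, between the two tested concentrations surrounding the appropriate level; five concentrations were tested over 48 hours in 96-well plates. TGI: concentration producing complete growth inhibition.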

tested on: MDA-N; assay: NCI anticancer screen, dose series, 48 h

Structure (SMILES) | TGI [µM]
COCC1OC(N2C(=O)NC(=O)[C@@H]3C=C4CCCCC4=C[C@@H]32)C(OC)C1OC (some centres undefined) | > 100
CCCCc1ccc(Nc2nc3c(ncn3COCCO)c(=O)[nH]2)cc1 | > 100
O=C(Nc1ccccc1C(=O)NCCCO)/C(=C/c1ccccc1O)NC(=O)c1ccccc1 | > 100
CCOC(=O)/C(C#N)=N\Nc1ccc(-n2c(C)nc3ccccc3c2=O)cc1 | > 100
OC1(c2ccc(Cl)cc2)c2ccc3ccccc3c2C2=N[C@H]3CCCC[C@@H]3N21 (some centres undefined) | > 100
NC(=O)c1cc2ccccc2o/c1=N/O | > 100
Brc1cccc(N=NN2CCCC2)c1 | > 100
COCc1nc2c(OC)cc(-c3nc4ccc(N5CCN(C)CC5)cc4[nH]3)c(OC)c2[nH]1 | > 100
Brc1ccc2c(-c3csc(-c4c[nH]c5ccc(Br)cc45)n3)c[nH]c2c1 | 16.6
Cc1c2ncccc2cc2oc3ccccc3c(=O)c12 | > 100
Clc1ccc(OCc2nnc(CCCCCCCCc3nnc(COc4ccc(Cl)cc4)n3Nc3ccccc3)n2Nc2ccccc2)cc1 | 37.1
COc1cc(CN2CCCCC2)cc2cc(C(=O)O)c(=O)oc12 | > 100
Brc1ccc2c(-c3csc(-c4c[nH]c5cc(Br)ccc45)n3)c[nH]c2c1 | 13.4
O=c1c2ccccc2nc(Nc2cccc(Cl)c2)n1/N=C/C=C/c1ccccc1 | > 100
Cc1nn(-c2cc(Cl)ccc2[N+](=O)[O-])c(C)c1Cl | > 100
Cn1c([O-])nc(-n2cc[n+](C)c2)cc1=O | > 100
CC1(C)C=C(S(=O)(=O)c2ccccc2)Oc2ccccc2O1 | > 100

tested on: CCRF-CEM leukemia; assay: NCI anticancer screen, dose series, 48 h

Structure (SMILES) | TGI [µM]
CC(C)(C)C1CCC2(CC1)c1[nH]c3ccccc3c1C1(CCC(C(C)(C)C)CC1)c1[nH]c3ccccc3c12 (centres undefined) | > 100
CC(=O)OC/C=C(/C=C/CNC1CCCCC1)OC(C)=O | > 100
O=C(N/N=C/c1ccco1)c1cc(I)cc(I)c1O | > 50
COc1c(Br)cc(CC(N)=O)c(O)c1Br | > 100
O=C(CSc1n[nH]c(=O)[nH]c1=O)NNC(=O)c1cccc2nc3ccccc3nc12 | > 100
Nc1ccc(S(=O)(=O)Nc2nc3ccccc3nc2N2CCCCC2)cc1 | > 100
COc1c(C)c2nc3ccccc3[nH]c2c2c(=O)ccnc12 | > 100
CCOc1cc(-c2nc3ccccn3c2/N=C/c2cc(Br)ccc2O)ccc1O | > 100
CC1(CNCc2ccccc2)CC(CCc2ccccc2)N(C(=O)c2ccc([N+](=O)[O-])cc2)C1Cc1ccc(O)cc1 (centres undefined) | > 100
Cn1c2ccccc2n2c(=O)c3cc([N+](=O)[O-])ccc3c(C#N)c12 | > 100
CCOC(=O)C(CC#Cc1ccc(C#CCC(NC(C)=O)C(=O)OCC)cc1)NC(C)=O (centres undefined) | > 100
O=C1CSC(c2cccs2)N1c1nc2cc3sc(N4C(=O)CSC4c4cccs4)nc3cc2s1 (centres undefined) | > 50
CCOC(=O)C1=C(OC(OCC)C(CC)[Se]c2ccccc2)CCCC1 (centres undefined) | 38.7
NC(N)=NS(=O)(=O)c1ccc(NC(=O)c2ccc3nc4ccccc4c(Nc4ccc(S(=O)(=O)N=C(N)N)cc4)c3c2)cc1 | > 100
Brc1cc2nn(-c3ccccc3)nc2c2nonc12 | > 100
CCOC(=O)C(NC(=O)CC(C)C)(N1CCN(c2cc3c(cc2F)c(=O)c(C(=O)O)cn3C2CC2)CC1)C(F)(F)F (centres undefined) | 14
c1ccc(/C(=N/Nc2ccccn2)c2ncccn2)cc1 | > 100
COc1cc(I)c2c3c1OC1C34CCN(C)C(C2)C4=CC(I)C1(OC)OC (centres undefined) | 26.8
NC(=O)C(=CNC(=S)c1ccncc1)C(N)=O | > 100
COC(=O)C1=Nc2c(C)nn(-c3ccccc3)c2N=C(c2ccc([N+](=O)[O-])cc2)C1 | > 10
COC(=O)c1ccc(C=Nc2ccc(S(N)(=O)=O)cc2)cc1 | 83
CC(C)(C)c1cc(/C=C(\C#N)C(=O)NCCO)cc(C(C)(C)C)c1O | 46.3
COC1(OC)CCCCC2c3cccc(OC(C)=O)c3C21OC(C)=O (centres undefined) | > 100

Structure (SMILES) | TGI [µM]
COC(=O)Cc1c([C@H]2[C@H](CC(=O)OC)c3ccccc3N2C(C)=O)[nH]c2ccccc12 | > 100
CCCCc1ccc(Nc2nc3c(ncn3COCCO)c(=O)[nH]2)cc1 | > 100
O=C(Nc1ccccc1C(=O)NCCCO)/C(=C/c1ccccc1O)NC(=O)c1ccccc1 | > 100
CCOC(=O)/C(C#N)=N\Nc1ccc(-n2c(C)nc3ccccc3c2=O)cc1 | > 100
OC1(c2ccc(Cl)cc2)c2ccc3ccccc3c2C2=N[C@H]3CCCC[C@@H]3N21 (some centres undefined) | 79.9
O=C1NC2OC(CO)C(O)C(O1)C2O (centres undefined) | > 100
NC(=O)c1cc2ccccc2o/c1=N/O | > 100
Brc1cccc(N=NN2CCCC2)c1 | > 100
COC(=O)C1CC2(c3ccccc3)C(=O)c3ccccc3N2O1 (centres undefined) | > 100
COCc1nc2c(OC)cc(-c3nc4ccc(N5CCN(C)CC5)cc4[nH]3)c(OC)c2[nH]1 | > 100
O=C(O)C(CO)NC(=O)n1c2ccccc2c2ccccc21 (centres undefined) | > 100
Brc1ccc2c(-c3csc(-c4c[nH]c5ccc(Br)cc45)n3)c[nH]c2c1 | > 29.2
Cc1c2ncccc2cc2oc3ccccc3c(=O)c12 | > 100
O=C(Nc1cccc(O)c1)C(=O)C(C(=O)c1ccccc1F)C1OC(=O)c2ccccc21 (centres undefined) | 68.5
COc1cc(CN2CCCCC2)cc2cc(C(=O)O)c(=O)oc12 | > 100
Brc1ccc2c(-c3csc(-c4c[nH]c5cc(Br)ccc45)n3)c[nH]c2c1 | > 64.1
O=c1c2ccccc2nc(Nc2cccc(Cl)c2)n1/N=C/C=C/c1ccccc1 | > 100
C=CCOCCCCC(C(C)=O)C(=O)OC (centres undefined) | > 100
Cc1nn(-c2cc(Cl)ccc2[N+](=O)[O-])c(C)c1Cl | > 100
Cn1c([O-])nc(-n2cc[n+](C)c2)cc1=O | > 100
O=C(CC1=NCCN1)c1ccccc1 | > 511
CC1(C)C=C(S(=O)(=O)c2ccccc2)Oc2ccccc2O1 | > 100

tested on: T-47D breast; assay: NCI anticancer screen, dose series, 48 h

Structure (SMILES) | TGI [µM]
CC(=O)OC/C=C(/C=C/CNC1CCCCC1)OC(C)=O | 36.7
O=C(N/N=C/c1ccco1)c1cc(I)cc(I)c1O | > 50
O=C(CSc1n[nH]c(=O)[nH]c1=O)NNC(=O)c1cccc2nc3ccccc3nc12 | > 100
Nc1ccc(S(=O)(=O)Nc2nc3ccccc3nc2N2CCCCC2)cc1 | > 100
COc1c(C)c2nc3ccccc3[nH]c2c2c(=O)ccnc12 | > 100
CCOc1cc(-c2nc3ccccn3c2/N=C/c2cc(Br)ccc2O)ccc1O | 22.4
CC1(CNCc2ccccc2)CC(CCc2ccccc2)N(C(=O)c2ccc([N+](=O)[O-])cc2)C1Cc1ccc(O)cc1 (centres undefined) | 18.8
Cn1c2ccccc2n2c(=O)c3cc([N+](=O)[O-])ccc3c(C#N)c12 | > 100
CCOC(=O)C(CC#Cc1ccc(C#CCC(NC(C)=O)C(=O)OCC)cc1)NC(C)=O (centres undefined) | > 100
O=C1CSC(c2cccs2)N1c1nc2cc3sc(N4C(=O)CSC4c4cccs4)nc3cc2s1 (centres undefined) | > 50
NC(N)=NS(=O)(=O)c1ccc(NC(=O)c2ccc3nc4ccccc4c(Nc4ccc(S(=O)(=O)N=C(N)N)cc4)c3c2)cc1 | > 100
Brc1cc2nn(-c3ccccc3)nc2c2nonc12 | > 100
CCOC(=O)C(NC(=O)CC(C)C)(N1CCN(c2cc3c(cc2F)c(=O)c(C(=O)O)cn3C2CC2)CC1)C(F)(F)F (centres undefined) | 86.7
c1ccc(/C(=N/Nc2ccccn2)c2ncccn2)cc1 | > 100
COc1cc(I)c2c3c1OC1C34CCN(C)C(C2)C4=CC(I)C1(OC)OC (centres undefined) | 31.1
NC(=O)C(=CNC(=S)c1ccncc1)C(N)=O | > 100
COC(=O)C1=Nc2c(C)nn(-c3ccccc3)c2N=C(c2ccc([N+](=O)[O-])cc2)C1 | > 10
COC(=O)c1ccc(C=Nc2ccc(S(N)(=O)=O)cc2)cc1 | > 100
CC(C)(C)c1cc(/C=C(\C#N)C(=O)NCCO)cc(C(C)(C)C)c1O | 76.8

Structure (SMILES) | TGI [µM]
COC(=O)Cc1c([C@H]2[C@H](CC(=O)OC)c3ccccc3N2C(C)=O)[nH]c2ccccc12 | > 100
COCC1OC(N2C(=O)NC(=O)[C@@H]3C=C4CCCCC4=C[C@@H]32)C(OC)C1OC (some centres undefined) | > 100
CCCCc1ccc(Nc2nc3c(ncn3COCCO)c(=O)[nH]2)cc1 | > 100
O=C(Nc1ccccc1C(=O)NCCCO)/C(=C/c1ccccc1O)NC(=O)c1ccccc1 | > 100
CCOC(=O)/C(C#N)=N\Nc1ccc(-n2c(C)nc3ccccc3c2=O)cc1 | > 100
OC1(c2ccc(Cl)cc2)c2ccc3ccccc3c2C2=N[C@H]3CCCC[C@@H]3N21 (some centres undefined) | 26.5
NC(=O)c1cc2ccccc2o/c1=N/O | > 100
Brc1cccc(N=NN2CCCC2)c1 | > 100
COCc1nc2c(OC)cc(-c3nc4ccc(N5CCN(C)CC5)cc4[nH]3)c(OC)c2[nH]1 | > 100
Brc1ccc2c(-c3csc(-c4c[nH]c5ccc(Br)cc45)n3)c[nH]c2c1 | 21.3
Cc1c2ncccc2cc2oc3ccccc3c(=O)c12 | 61.7
Clc1ccc(OCc2nnc(CCCCCCCCc3nnc(COc4ccc(Cl)cc4)n3Nc3ccccc3)n2Nc2ccccc2)cc1 | > 100
COc1cc(CN2CCCCC2)cc2cc(C(=O)O)c(=O)oc12 | > 100
Brc1ccc2c(-c3csc(-c4c[nH]c5cc(Br)ccc45)n3)c[nH]c2c1 | 98.7
O=c1c2ccccc2nc(Nc2cccc(Cl)c2)n1/N=C/C=C/c1ccccc1 | > 100
Cc1nn(-c2cc(Cl)ccc2[N+](=O)[O-])c(C)c1Cl | > 100
Cn1c([O-])nc(-n2cc[n+](C)c2)cc1=O | > 100
CC1(C)C=C(S(=O)(=O)c2ccccc2)Oc2ccccc2O1 | 96.4
